Source: US9427471B2, “Method and improved pharmaceutical composition for enhancing transdermal delivery of PDE-5 inhibitor” (Tritech Biopharmaceuticals Co., Ltd., priority 2011, dated 2016)

Key:
[1] = type: in vitro ADME; settings: Sprague-Dawley, rat, 1 % (wt %)
Protocol: The permeation test was carried out using in vitro Franz diffusion cell with a diffusion area of 0.785 cm^2. A piece of rat (Sprague-Dawley) skin tissue was mounted between the two half-cells and fastened with a clamp. Aliquots of 1% (wt %) vardenafil with or without the addition of the enhancer of this disclosure, such as 0.3% (wt %) cocamidopropyl betaine, 1% (wt %) sodium lauroamphoacetate, 1% (wt %) isostearamidopropyl morpholine lactate, 1% (wt %) quaternium-60 or dipropyl glycol, were applied to the Donor compartment to start the experiment. The receiver compartment was filled with PBS and the temperature was held at 37° C. Samples were taken at certain time intervals and assayed by HPLC.

[2] = In vivo skin permeation analysis (applied to rabbit ear, vardenafil in blood); settings: gel formulations (about 0.5 ml, blood drawn after 1 hour) or skin patch (6 hours) with enhancer(s) applied to left ear of rabbit, blood from right ear artery; FIG. 2
Protocol: In vivo skin permeation tests were carried out using the gel formulations of example 2.1 and the skin patch of example 2.2. Briefly, small aliquots (about 0.5 ml) of gel formulations #1 to 4 or a small piece of the skin patch (3 cm×5 cm×0.15 cm) was applied to the left ear of a rabbit, after certain period of time, 1 ml of blood was drawn from the rabbit's right ear artery and analyzed for the amount of vardenafil. Specifically, the blood was drawn after 1 hour when gel formulation was used; and 6 hours when skin patch was applied. Results are illustrated in FIG. 2.

CCCc1nc(C)c2c(=O)[nH]c(-c3cc(S(=O)(=O)N4CCN(CC)CC4)ccc3OCC)nn12 [vardenafil]
increase of the amount of vardenafil in the receiving side of Franz Diffusion chamber as compared with control [1]: 0.5-2 folds | increase of the amount of vardenafil found in the blood stream as compared with control [2]: 4 to 5 folds
